Laboratory results from patent publication US9067891B2, “1,4-disubstituted 3-cyano-pyridone derivatives and their use as positive allosteric modulators of mGluR2-receptors” (JANSSEN PHARMACEUTICALS, INC., priority 2007, dated 2015).
Several values for one entry are separate records, joined by “and”; a condition that tells them apart may be missing. Equal entries are not always repeated.

Experiments:
human mGluR2 receptor = biological target: T1, human mGluR2 receptor (Homo sapiens, UniProt Q14416); assay: [35S]GTPγS binding assay (GTPγS-PAM), membranes from CHO cells transfected with human mGluR2; format: biochemical; details: positive allosteric modulation in presence of glutamate at predetermined EC25 concentration, averages of duplicate values of 11-concentration response curves, pEC50 = -logEC50, error about 0.3 log-units; for EC50: read-out: GTPgS - hR2 PAM pEC50 (converted)
T1 construct: expressed in transfected cells; host or cells: CHO cells (membrane preparation)
T1 sequence (Q14416 19-872): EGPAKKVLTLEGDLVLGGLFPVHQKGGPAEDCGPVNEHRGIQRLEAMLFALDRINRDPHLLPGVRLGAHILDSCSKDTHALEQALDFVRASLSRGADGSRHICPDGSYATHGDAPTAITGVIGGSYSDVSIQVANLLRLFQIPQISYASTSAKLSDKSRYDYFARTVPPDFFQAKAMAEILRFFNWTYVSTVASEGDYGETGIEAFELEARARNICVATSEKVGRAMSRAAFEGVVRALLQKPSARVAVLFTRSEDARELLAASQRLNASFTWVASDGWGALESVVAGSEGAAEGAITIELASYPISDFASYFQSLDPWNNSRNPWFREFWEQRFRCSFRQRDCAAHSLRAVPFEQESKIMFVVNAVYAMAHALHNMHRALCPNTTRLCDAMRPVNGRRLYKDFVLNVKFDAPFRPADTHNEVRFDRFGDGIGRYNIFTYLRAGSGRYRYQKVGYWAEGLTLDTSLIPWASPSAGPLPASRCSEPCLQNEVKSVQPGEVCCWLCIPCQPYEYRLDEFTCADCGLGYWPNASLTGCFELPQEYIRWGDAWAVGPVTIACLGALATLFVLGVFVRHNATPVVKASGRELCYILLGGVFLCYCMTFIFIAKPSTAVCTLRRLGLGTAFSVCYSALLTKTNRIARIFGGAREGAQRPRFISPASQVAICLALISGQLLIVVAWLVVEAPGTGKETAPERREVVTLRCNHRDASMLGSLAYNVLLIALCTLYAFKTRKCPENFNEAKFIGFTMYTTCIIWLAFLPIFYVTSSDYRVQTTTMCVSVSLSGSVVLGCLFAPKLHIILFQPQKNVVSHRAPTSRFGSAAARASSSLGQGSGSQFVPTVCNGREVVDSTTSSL
Text: The compounds provided in the present invention are positive allosteric modulators of mGluR2. These compounds appear to potentiate glutamate responses by binding to an allosteric site other than the glutamate binding site. The response of mGluR2 to a concentration of glutamate is increased when compounds of formula (I) are present. Compounds of formula (I) are expected to have their effect substantially at mGluR2 by virtue of their ability to enhance the function of the receptor. The behaviour of positive allosteric modulators tested at mGluR2 using the [^35S]GTPγS binding assay method described below and which is suitable for the identification of such compounds, and more particularly the compounds according to formula (I), are shown in Table 3.
[^35S]GTPγS Binding Assay
The [^35S]GTPγS binding assay is a functional membrane-based assay used to study G-protein coupled receptor (GPCR) function whereby incorporation of a non-hydrolysable form of GTP, [^35S]GTPγS (guanosine 5′-triphosphate, labelled with […] ^35S), is measured. The G-protein […] catalyzes the exchange of guanosine 5′-diphosphate (GDP) by guanosine triphosphate (GTP) and on activation of the GPCR by an agonist, [^35S]GTPγS, becomes incorporated and cannot be cleaved to continue the exchange cycle (Harper (1998) Current Protocols in Pharmacology 2.6.1-10, John Wiley & Sons, Inc.). […] Here we describe the use of the [^35S]GTPγS binding assay using membranes from cells transfected with the human mGluR2 receptor and adapted from Sehaffhauser et al ((2003) Molecular Pharmacology 4:798-810) for the detection of the positive allosteric modulation (PAM) properties of the compounds of this invention.
CHO-cells were cultured to pre-confluence and stimulated with 5 mM butyrate for 24 hours, prior to washing in PBS, and then collection by scraping in homogenisation buffer (50 mM Tris-HCl buffer, pH 7.4, 4° C.). Cell lysates were homogenized briefly (15 s) using an ultra-turrax homogenizer. The homogenate was centrifuged at 23 500×g for 10 minutes and the supernatant discarded. The pellet was resuspended in 5 mM Tris-HCl, pH 7.4 and centrifuged again (30 000×g, 20 min, 4° C.). The final pellet was resuspended in 50 mM HEPES, pH 7.4 and stored at −80° C. in appropriate aliquots before use. Protein concentration was determined by the Bradford method (Bio-Rad, USA) with bovine serum albumin as standard.
Measurement of mGluR2 positive allosteric modulatory activity of test compounds in membranes containing human mGluR2 was performed using frozen membranes that were thawed and briefly homogenised prior to pre-incubation in 96-well microplates (15 μg/assay well, 30 minutes, 30° C.) in assay buffer (50 mM HEPES pH 7.4, 100 mM NaCl, 3 mM MgCl2, 50 μM GDP, 10 μg/ml saponin,) with increasing concentrations of positive allosteric modulator (from 0.3 nM to 50 μM) and either a minimal pre-determined concentration of glutamate (PAM assay), or no added glutamate. For the PAM assay, membranes were pre-incubated with glutamate at EC25 concentration, i.e. a concentration that gives 25% of the maximal response glutamate, and is in accordance to published data (Pin et al. (1999) Eur. J. Pharmacol. 375:277-294). After addition of [^35S]GTPγS (0.1 nM, f.c.) to achieve a total reaction volume of 200 μl, microplates were shaken briefly and further incubated to allow [^35S]GTPγS incorporation on activation (30 minutes, 30° C.). The reaction was stopped by rapid vacuum filtration over glass-fibre filter plates (Unifilter 96-well GF/B filter plates, Perkin-Elmer, Downers Grove, USA) microplate using a 96-well plate cell harvester (Filtermate, Perkin-Elmer, USA), and then by washing three times with 300 μl of ice-cold wash buffer (Na2PO4.2H20 10 mM, NaH2PO4.H20 10 mM, pH=7.4). […]

Compound	melting point	EC50 (human mGluR2 receptor) [nM]	GTPgS - hR2 PAM pEC50 (human mGluR2 receptor)
Cc1cc(C)nc(Oc2ccc(-c3ccn(CC4CC4)c(=O)c3C#N)c(F)c2)c1 [Compound 1, 1-Cyclopropylmethyl-4-[4-(4,6-dimethyl-pyridin-2-yloxy)-2-fluoro-phenyl]-2-oxo-1,2-dihydro-pyridine-3-carbonitrile]	137 °C	813	–
CCCCn1ccc(-c2ccc(Oc3ccc(C)nc3C)c(F)c2)c(C#N)c1=O [Compound 2, 1-Butyl-4-[4-(2,6-dimethyl-pyridin-3-yloxy)-3-fluoro-phenyl]-2-oxo-1,2-dihydro-pyridine-3-carbonitrile]	156.4 °C	138	–
Cc1ccc(Oc2ccc(-c3ccn(CC4CC4)c(=O)c3C#N)cc2F)c(C)n1 [Compound 3, 1-Cyclopropylmethyl-4-[4-(2,6-dimethyl-pyridin-3-yloxy)-3-fluoro-phenyl]-2-oxo-1,2-dihydro-pyridine-3-carbonitrile]	152.7 °C	457	–
CCCCn1ccc(-c2ccc(Oc3ccnc(C)c3)cc2F)c(C#N)c1=O [Compound 4, 1-Butyl-4-[2-fluoro-4-(2-methyl-pyridin-4-yloxy)-phenyl]-2-oxo-1,2-dihydro-pyridine-3-carbonitrile]	127.1 °C	–	6.41
CCCCn1ccc(-c2ccc(Oc3ccnc(C)c3)c(F)c2)c(C#N)c1=O [Compound 5, 1-Butyl-4-[3-fluoro-4-(2-methyl-pyridin-4-yloxy)-phenyl]-2-oxo-1,2-dihydro-pyridine-3-carbonitrile]	125.2 °C and 125.4 °C	437	–
CCCCn1ccc(-c2ccc(Oc3cc(C)nc(C)c3)cc2F)c(C#N)c1=O [Compound 6, 1-Butyl-4-[4-(2,6-dimethyl-pyridin-4-yloxy)-2-fluoro-phenyl]-2-oxo-1,2-dihydro-pyridine-3-carbonitrile]	169.9 °C	437	–
CCCCn1ccc(-c2ccc(Oc3cc(C)nc(C)c3)c(F)c2)c(C#N)c1=O [Compound 7, 1-Butyl-4-[4-(2,6-dimethyl-pyridin-4-yloxy)-3-fluoro-phenyl]-2-oxo-1,2-dihydro-pyridine-3-carbonitrile]	–	347	–
Cc1cc(Oc2ccc(-c3ccn(CC4CC4)c(=O)c3C#N)c(F)c2)cc(C)n1 [Compound 8, 1-Cyclopropylmethyl-4-[4-(2,6-dimethyl-pyridin-4-yloxy)-2-fluoro-phenyl]-2-oxo-1,2-dihydro-pyridine-3-carbonitrile]	–	794	–
Cc1cc(Oc2ccc(-c3ccn(CC4CC4)c(=O)c3C#N)cc2F)cc(C)n1 [Compound 9, 1-Cyclopropylmethyl-4-[4-(2,6-dimethyl-pyridin-4-yloxy)-3-fluoro-phenyl]-2-oxo-1,2-dihydro-pyridine-3-carbonitrile]	201.2 °C	708	–
Cc1nccc(Oc2ccc(-c3ccn(CC4CC4)c(=O)c3C#N)c(F)c2)c1C [Compound 10, 1-Cyclopropylmethyl-4-[4-(2,3-dimethyl-pyridin-4-yloxy)-2-fluoro-phenyl]-2-oxo-1,2-dihydro-pyridine-3-carbonitrile]	–	372	–
Cc1nccc(Oc2ccc(-c3ccn(CC4CC4)c(=O)c3C#N)cc2F)c1C [Compound 11, 1-Cyclopropylmethyl-4-[4-(2,3-dimethyl-pyridin-4-yloxy)-3-fluoro-phenyl]-2-oxo-1,2-dihydro-pyridine-3-carbonitrile]	–	676	–
CCCCn1ccc(-c2ccc(Oc3cccnc3C)c(F)c2)c(C#N)c1=O [Compound 12]	104.8 °C	537	–
Cc1cc(Oc2ccc(-c3ccn(CCC4CC4)c(=O)c3C#N)c(F)c2)ccn1 [Compound 13]	110.7 °C	417	–
Cc1ncccc1Oc1ccc(-c2ccn(CCC3CC3)c(=O)c2C#N)cc1F [Compound 14]	145.8 °C	380	–
CCCCn1ccc(-c2cc(F)c(Oc3ccnc(C)c3)c(F)c2)c(C#N)c1=O [Compound 15]	172.2 °C	708	–
CCCCn1ccc(-c2ccc(Oc3cccnc3C)cc2)c(C#N)c1=O [Compound 16]	136.7 °C	437	–
CCCCn1ccc(-c2ccc(Oc3cc(C)ccn3)cc2)c(C#N)c1=O [Compound 17]	–	1000	–
CCCCn1ccc(-c2ccc(Oc3ccnc(C)c3)cc2)c(C#N)c1=O [Compound 18, 3-cyano-1-butyl-4-[4-(2-methyl-pyridin-4-yloxy)-phenyl]-pyridine-2(1H)-one]	121 °C	–	–
N#Cc1c(-c2ccc(Oc3ccnc(Cl)c3)cc2)ccn(CC2CC2)c1=O [Compound 19]	–	158	–
CCCCn1ccc(-c2ccc(Oc3ccncc3Cl)cc2)c(C#N)c1=O [Compound 20]	–	631	–
